# ChEMBL document CHEMBL1144202, “Triazole oxytocin antagonists: identification of aryl ether replacements for a biaryl substituent” (Bioorg Med Chem Lett, 2008)
# Key:
# Oxytocin receptor = molecular target: T1, Oxytocin receptor (Homo sapiens, UniProt P30559); assay: Antagonist activity at human oxytocin receptor by cell based beta-lactamase reporter gene assay; assay type: functional
# T1 sequence (P30559 whole entry): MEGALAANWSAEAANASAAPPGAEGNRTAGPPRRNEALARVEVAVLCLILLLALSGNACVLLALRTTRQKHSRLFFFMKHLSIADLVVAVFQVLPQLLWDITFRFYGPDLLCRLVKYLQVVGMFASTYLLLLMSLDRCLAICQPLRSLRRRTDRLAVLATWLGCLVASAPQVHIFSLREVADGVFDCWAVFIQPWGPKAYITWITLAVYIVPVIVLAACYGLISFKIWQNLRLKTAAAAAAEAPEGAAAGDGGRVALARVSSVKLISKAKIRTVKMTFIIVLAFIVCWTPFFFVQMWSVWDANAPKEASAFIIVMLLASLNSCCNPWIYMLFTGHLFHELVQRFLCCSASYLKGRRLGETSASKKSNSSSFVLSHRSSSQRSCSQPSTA
# Vasopressin V1a receptor = Vasopressin V1a receptor (Homo sapiens, UniProt P37288); assay: Antagonist activity at human vasopressin V1a receptor by cell based beta-lactamase reporter gene assay; assay type: functional
# Sequence of Vasopressin V1a receptor (P37288 whole entry): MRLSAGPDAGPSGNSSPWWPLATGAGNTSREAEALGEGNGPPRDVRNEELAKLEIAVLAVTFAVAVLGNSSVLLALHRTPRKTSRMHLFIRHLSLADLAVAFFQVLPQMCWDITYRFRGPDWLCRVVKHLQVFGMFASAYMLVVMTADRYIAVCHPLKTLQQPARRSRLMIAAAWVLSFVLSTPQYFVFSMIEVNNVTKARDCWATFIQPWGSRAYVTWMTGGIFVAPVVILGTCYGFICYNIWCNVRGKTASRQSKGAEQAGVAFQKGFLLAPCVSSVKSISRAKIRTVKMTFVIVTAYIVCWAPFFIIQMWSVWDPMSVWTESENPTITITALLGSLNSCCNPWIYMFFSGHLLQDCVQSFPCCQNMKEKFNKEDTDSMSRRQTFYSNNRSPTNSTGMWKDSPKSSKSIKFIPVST
# Vasopressin V2 receptor = Vasopressin V2 receptor (Homo sapiens, UniProt P30518); assay: Antagonist activity at human vasopressin V2 receptor by cell based beta-lactamase reporter gene assay; assay type: functional
# Sequence of Vasopressin V2 receptor (P30518 whole entry): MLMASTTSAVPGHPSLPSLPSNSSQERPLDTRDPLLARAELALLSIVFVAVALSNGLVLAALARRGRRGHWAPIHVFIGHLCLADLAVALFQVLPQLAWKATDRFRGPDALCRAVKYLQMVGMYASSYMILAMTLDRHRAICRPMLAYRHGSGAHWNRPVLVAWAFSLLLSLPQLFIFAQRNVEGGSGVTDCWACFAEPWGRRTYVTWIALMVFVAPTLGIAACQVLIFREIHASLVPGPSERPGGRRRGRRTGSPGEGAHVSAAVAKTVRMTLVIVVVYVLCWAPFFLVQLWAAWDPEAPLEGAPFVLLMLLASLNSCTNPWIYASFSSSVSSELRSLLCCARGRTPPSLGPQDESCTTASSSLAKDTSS
# [1] = molecular target: T2, Vasopressin V1b receptor (Homo sapiens) (UniProt P47901); assay: Binding affinity to human vasopressin V1b receptor at 10 uM relative to control
# T2 sequence (whole entry): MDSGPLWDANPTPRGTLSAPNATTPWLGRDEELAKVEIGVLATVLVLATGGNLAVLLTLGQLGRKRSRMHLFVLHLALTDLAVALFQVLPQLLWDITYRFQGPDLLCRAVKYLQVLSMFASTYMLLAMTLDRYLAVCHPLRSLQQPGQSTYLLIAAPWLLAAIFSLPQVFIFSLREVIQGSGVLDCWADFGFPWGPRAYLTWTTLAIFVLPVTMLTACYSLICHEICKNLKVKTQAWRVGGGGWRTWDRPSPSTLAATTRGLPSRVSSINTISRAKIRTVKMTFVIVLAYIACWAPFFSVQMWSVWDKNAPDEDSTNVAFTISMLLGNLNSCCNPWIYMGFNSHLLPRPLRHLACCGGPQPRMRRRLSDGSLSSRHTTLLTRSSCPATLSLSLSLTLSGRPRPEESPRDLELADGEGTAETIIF
# [2] = Aqueous solubility at pH 7.4; assay type: physicochemical
# Vasopressin V1b receptor = molecular target: T3, Vasopressin V1b receptor (Homo sapiens, UniProt P47901); assay: Antagonist activity at human vasopressin V1b receptor by cell based beta-lactamase reporter gene assay; assay type: functional
# T3 sequence (P47901 whole entry): T2 sequence (whole entry)
# [3] = Intrinsic clearance in human liver microsomes; assay type: ADME, Microsome
Compound,Ki (Oxytocin receptor),Ki (Vasopressin V1a receptor),Ki (Vasopressin V2 receptor),Activity [1],solubility [2],Ki (Vasopressin V1b receptor),microsomal CLint [3]
CCOc1ccc(-c2nnc(Cn3nccn3)n2-c2ccc(OC)nc2)cc1C,45 nM,214 nM,1000 nM,< 20%,–,–,–
CCOc1ccc(-c2nnc(C)n2-c2ccc(OC)nc2)cc1C,143 nM,> 10000 nM,> 10000 nM,< 20%,–,–,–
COc1ccc(-n2c(C)nnc2-c2cnc(-c3ccc(F)cc3C)cn2)cn1,–,–,–,< 20%,–,–,–
COCc1nnc(-c2cnc(-c3ccc(C#N)cc3C)cn2)n1-c1ccc(OC)nc1,–,–,–,< 20%,–,–,–
CCOc1ccc(-c2nnc(COC)n2-c2ccc(OC)nc2)cc1C(F)(F)F,190 nM,> 10000 nM,> 10000 nM,< 20%,–,–,–
CCOc1ccc(-c2nnc(COC)n2-c2ccc(OC)nc2)cc1C,102 nM,3800 nM,> 10000 nM,< 20%,170 µg/mL,–,–
CCOc1ccc(-c2nnc(COC)n2-c2ccc(OC)nc2)cc1Cl,144 nM,2900 nM,> 10000 nM,< 20%,–,–,–
CCOc1ccc(-c2nnc(COCCOC)n2-c2ccc(OC)nc2)cc1C,19 nM,1700 nM,6400 nM,< 20%,–,–,–
CCOCc1nnc(-c2ccc(OCC)c(C)c2)n1-c1ccc(OC)nc1,28 nM,594 nM,> 10000 nM,< 20%,344 µg/mL,> 10000 nM,12 µL/min/mg
CCOc1ccc(S(=O)(=O)N(CC(=O)N/N=C2\C(=O)Nc3ccccc32)c2ccccc2)cc1,6 nM,–,–,< 20%,–,–,–
